Results published in ChEMBL document CHEMBL1139246, “Pyridine-3-carboxamides as novel CB(2) agonists for analgesia” (Bioorg Med Chem Lett, 2009).
Where “and” joins values, the source holds several entries; their conditions need not be identical. Identical values can stand only once.

Test system: not listed separately
Test: Dissociation constant, pKa of the compound
Format: physicochemical
Conditions: not given

SMILES	pKa
CCC(CC)CNC(=O)c1cnc(Nc2cccc(Cl)c2)cc1C(C)C	6.02
CC(C)c1cc(Nc2cccc(Cl)c2)ncc1C(=O)NCc1ccc(F)cc1	6.02
CC(C)CNC(=O)c1cnc(Nc2cccc(Cl)c2)cc1C(C)C	6.02
CC(C)c1cc(Nc2cccc(Cl)c2)ncc1C(=O)NC1CCOCC1	6.02
CC(C)c1cc(Nc2cccc(C(F)(F)F)c2F)ncc1C(=O)NCC1CCOCC1	6.02
CC(C)c1cc(Nc2cccc(C#N)c2)ncc1C(=O)NCC1CCOCC1	6.02
Cc1cccc(Nc2cc(C(C)C)c(C(=O)NCC3CCC3)cn2)c1	6.02
CC(C)c1cc(Nc2cccc(Cl)c2)ncc1C(=O)NCC1CCOCC1	6.02
COc1ccc(Cl)cc1Nc1cc(C(F)(F)F)c(C(=O)NCC2CCOCC2)cn1	2.63
O=C(NCC1CCCC1)c1cnc(Nc2ccc(Cl)cc2Cl)cc1C(F)(F)F	2.63
O=C(NCC1CCOCC1)c1cnc(Nc2ccc(Cl)cc2Cl)cc1C(F)(F)F	2.63
Cc1cccc(Nc2cc(C(C)C)c(C(=O)NCC3CCOCC3)cn2)c1	6.02
O=C(NCC1CCCCC1)c1cnc(Nc2cccc(Cl)c2)cc1C(F)(F)F	2.63
O=C(NCc1ccc(F)cc1)c1cnc(Nc2cccc(Br)c2)cc1C(F)(F)F	2.63
NC(=O)c1ccc(CNC(=O)c2cnc(Nc3cccc(Cl)c3)cc2C(F)(F)F)cc1	2.63
O=C(NCC1CCOCC1)c1cnc(Nc2cccc(F)c2)cc1C(F)(F)F	2.63
O=C(NCC1CCOCC1)c1cnc(Nc2cccc(Cl)c2)cc1C(F)(F)F	2.63
CC(C)c1cc(Nc2cccc(Cl)c2)ncc1C(=O)NCC(C)(C)C	6.02
CC(C)c1cc(Nc2ccc(Cl)cc2Cl)ncc1C(=O)NCC1CCOCC1	6.02
CC(C)c1cc(Nc2cccc(Cl)c2)ncc1C(=O)NCC1CCCC1	6.02
CC(C)c1cc(Nc2cccc(Br)c2)ncc1C(=O)NCC1CCOCC1	6.02
COc1ccc(Cl)cc1Nc1cc(C(F)(F)F)c(C(=O)NCC2CCC2)cn1	2.63
CC(C)c1cc(Nc2ccc(C#N)c(Cl)c2)ncc1C(=O)NCC1CCOCC1	6.02
Cc1cc(Cl)ccc1Nc1cc(C(F)(F)F)c(C(=O)NCC2CCOCC2)cn1	2.63
COc1cccc(Nc2cc(C(C)C)c(C(=O)NCC3CCOCC3)cn2)c1	6.02

Test system: not listed separately
Test: Oral bioavailability in rat at 3 mg/kg
Format: ADME, organism-based
Conditions: in vivo

SMILES	bioavailability
O=C(NCC1CCOCC1)c1cnc(Nc2ccc(Cl)cc2Cl)cc1C1CC1	39%

Test system: not listed separately
Test: Volume of distribution in rat at 1 mg/kg, iv
Format: ADME, organism-based
Set-up: dose 1 mg/kg, route intravenous
Conditions: in vivo

SMILES	Vd
O=C(NCC1CCOCC1)c1cnc(Nc2ccc(Cl)cc2Cl)cc1C1CC1	2.4 L/kg

Test system: Rattus norvegicus
Test: Dose normalized AUC (0 to t) in rat at 30 mg/kg, po after 6 hrs
Format: ADME, organism-based
Set-up: time < 6 hr, dose 30 mg/kg, route oral
Conditions: in vivo

SMILES	AUC
O=C(NCC1CCOCC1)c1cnc(Nc2cccc(Br)c2)cc1C1CC1	5 kg·min/L
O=C(NCC1CCOCC1)c1cnc(Nc2cccc(OC(F)(F)F)c2)cc1C1CC1	3 kg·min/L
O=C(NCC1CCOCC1)c1cnc(Nc2ccc(Cl)cc2Cl)cc1C1CC1	15 kg·min/L
CC(C)(C)c1cc(Nc2ccc(Cl)cc2Cl)ncc1C(=O)NCC1CCOCC1	16 kg·min/L

Test system: not listed separately
Test: Clearance in rat at 1 mg/kg, iv
Format: ADME, organism-based
Set-up: dose 1 mg/kg, route intravenous
Conditions: in vivo

SMILES	clearance
O=C(NCC1CCOCC1)c1cnc(Nc2ccc(Cl)cc2Cl)cc1C1CC1	14 mL/min/kg and 14 mL/min

Test system: not listed separately
Test: Half life in rat at 1 mg/kg, iv
Format: ADME, organism-based
Set-up: dose 1 mg/kg, route intravenous
Conditions: in vivo

SMILES	half-life
O=C(NCC1CCOCC1)c1cnc(Nc2ccc(Cl)cc2Cl)cc1C1CC1	3.1 h
